Earlier results in US20230413813A1, “ANTIMICROBIAL COMPOSITION COMPRISING A POLYIMIDE” (The Procter & Gamble Company, priority 2022, published 2023).

Structure (SMILES): CC(=O)O.CC(=O)O.NC(=N\CCCCCC/N=C(N)/N=C(\N)Nc1ccc(Cl)cc1)/N=C(\N)Nc1ccc(Cl)cc1 [Chlorhexidine diaceate, Chlorhexidine diacetate]
- solubility in water: ~1%
